In patent publication US20050272677A1, “Delivery of a substance to a pre-determined site” (priority 2002, published 2005):
Residue numbers refer to the chain shown, from its start. In names and notes the source's numbering stands.

Legend:
[1] = Gelation experiment (gel formation in solvents); format: physicochemical; design: key to Gelation properties: g = gel; i = insoluble; p = precipitate; sol = soluble
Method: To obtain a gel or to thicken the solvent, the compound is mixed with the required solvent or a mixture of solvents in an amount between 0.01 and 50 wt. %, based on the weight of the composition. Typically, the dissolution of the components will be performed by heating (in some cases it may be helpful to homogenize the components, e.g., vortex) them together at temperatures of 20° C. to 200° C., preferably 50° C. to 150° C. Cooling these hot solutions to a preferred temperature in the range of −20° C. to 100° C., preferably 4° C. to 100° C. affords the gel or thickened solvent. […] In an alternative embodiment, the gelling agent is first dissolved in a polar or apolar solvent followed by the addition of another solvent or solvent mixture, thereby causing gelation to take place.
It will be understood that the use of the present gelling agents or thickeners to prepare a gel or to thicken a composition is also encompassed by the invention. As is well-known, gelling behavior of compounds or compositions is highly unpredictable. […] Preferably, the gelling phenomenon is thermoreversible.
In a typical gelation experiment, a carefully weighed amount of the dithienylcyclopentene derivative under investigation and 1 ml of the solvent are placed in a test tube, which is sealed and then heated until the compound is dissolved. The solution is allowed to cool to room temperature. […] The gelation process could be followed by UV-vis and CD spectroscopy as depicted in FIG. 58. At low concentrations (0.35 mM), compound D is dissolved in toluene. […] Increasing the concentration to 1.8 mM causes gelation of the solvent, which is accompanied by a change of the UV-visible spectrum, together with the appearance of a strong CD signal at 323 nm (FIG. 58, panels (a) and (c)). Similar changes in the UV-vis and CD spectrum are observed upon gelation of the 1.8 mM solution of D in toluene by cooling to a temperature below the sol-gel phase transition (from here on, referred to as gel(o)). From a plot of the increase of the CD signal versus the temperature, the sol-gel phase transition temperature of gel(o) was determined to be 29° C. for a 1.8 mM solution of D in toluene.

[2] = Gelation in the presence of surfactants and polymeric micelles; format: physicochemical; design: key: G = gel; C = crystalline; G^a: ^a= not stable
[3] = as above; format: physicochemical; design: key: g = gel; i = insoluble; p = precipitate; sol = soluble
[4] = tested on: pB104 strain (MscL null E. coli); test: Growth assay of MscL mutants on agar plates with or without IPTG; format: cell-based; design: key: ++++: growth equal to cells expressing wild-type MscL; growth is indicated by ++++ to −; growth is indicated by ++++ to −; growth is indicated by ++++ to −; −: an absence of growth; settings: pB104 with Lac-inducible plasmid; for Growth on agar plates +IPTG: with IPTG; for Growth on agar plates −IPTG: without IPTG
Method: The constructs of the MscL-6His mutants were constructed using standard molecular biology techniques. The mutants were tested in the pB104 strain (MscL null E. coli) by a growth assay on agar plates with or without IPTG (K. Yoshimura et al., 1999, Biophys. J. 77:1960-1972).
The first phenotype (++) grows like the single G22S mutant.

## CHex-Am-Ser(Bzl)-Am-Borate
[1]
  solvents gelated: water and lower alcohols

## COC(=O)[C@H](Cc1c[nH]cn1)NC(=O)[C@H](CCSC)NC(=O)[C@@H]1C[C@H](C(=O)NC(CCSC)C(=O)N[C@H](Cc2c[nH]cn2)C(=O)OC)C[C@H](C(=O)N[C@@H](CCSC)C(=O)N[C@@H](Cc2c[nH]cn2)C(=O)OC)C1 (stereo partly shown) [gelator 14, CHexAmMetHisOMe]
[1]
  solvents gelated: water

## COC(=O)CC[C@H](NC(=O)[C@H]1C[C@@H](C(=O)N[C@@H](CCC(=O)OC)C(=O)OC)C[C@@H](C(=O)N[C@@H](CCC(=O)OC)C(=O)OC)C1)C(=O)OC [gelator 7, CHexAmGluOMe]
[1]
  solvents gelated: both organic solvents and water

## O=C(OCCO)[C@H](Cc1ccccc1)NC(=O)[C@H]1C[C@@H](C(=O)N[C@@H](Cc2ccccc2)C(=O)OCCO)C[C@@H](C(=O)N[C@@H](Cc2ccccc2)C(=O)OCCO)C1 [gelator 2, CHexAmPheOCH2CH2OH]
[1]
  solvents gelated: water and lower alcohols
[2]; Nonionic (Lactose der.) < CMC
  Gelation properties: G^a
[2]; Nonionic (Lactose der.) > CMC
  Gelation properties: G^a
[2]; Pluronic P 105, 5 mg · ml^−1
  Gelation properties: g^a
[2]; Pluronic P 105, 100 mg · ml^−1
  Gelation properties: g^a
[2]; anionic (SDS) < CMC
  Gelation properties: G^a
[2]; anionic (SDS) > CMC
  Gelation properties: G^a
[2]; cationic (CTAB) < CMC
  Gelation properties: G^a
[2]; cationic (CTAB) > CMC
  Gelation properties: G^a

## CHexAmPheAmGluOH [gelator 13]
[1]
  solvents gelated: water

## COC(=O)C[C@H](NC(=O)[C@H]1C[C@@H](C(=O)N[C@@H](CC(=O)OC)C(=O)OC)C[C@@H](C(=O)N[C@@H](CC(=O)OC)C(=O)OC)C1)C(=O)OC [gelator 8, CHexAmAspOMe]
[1]
  solvents gelated: both organic solvents and water

## racemic CHex-bisurea dihexylamine [5b]
[1]; 1 N NaHCO3
  Gelation properties: sol
[1]; 1 N NaOH
  Gelation properties: g
[1]; 25% Ammonia
  Gelation properties: g
[1]; buffer PH 5.7
  Gelation properties: sol
[1]; buffer PH 6.3
  Gelation properties: sol
[1]; buffer PH 7.2
  Gelation properties: g
[1]; buffer PH 7.9
  Gelation properties: g
[1]; water
  Gelation properties: g

## Cc1sc(C(=O)Nc2ccccc2)cc1C1=C(c2cc(C(=O)Nc3ccccc3)sc2C)CCC1 [Compound C, 1,2-Bis(5′-(anilinocarbonyl)-2′-methyl-thien-3′-yl) cyclopentene]
[1]
  solvents gelated: 1-phenyloctane, toluene, n-butylether, benzene, tetralin

## CHex-Am-Met-Am-Borate
[1]
  solvents gelated: water and lower alcohols

## O=C(NCCOCCO)[C@H](Cc1ccccc1)NC(=O)[C@H]1C[C@@H](C(=O)N[C@@H](Cc2ccccc2)C(=O)NCCOCCO)C[C@@H](C(=O)N[C@@H](Cc2ccccc2)C(=O)NCCOCCO)C1 [gelator 4, CHexAmPheNHCH2CH2OCH2CH2OH]
[1]
  solvents gelated: water and lower alcohols
[2]; Nonionic (Lactose der.) < CMC
  Gelation properties: G
[2]; Nonionic (Lactose der.) > CMC
  Gelation properties: G
[2]; anionic (SDS) < CMC
  Gelation properties: G
[2]; anionic (SDS) > CMC
  Gelation properties: G
[2]; cationic (CTAB) < CMC
  Gelation properties: G
[2]; cationic (CTAB) > CMC
  Gelation properties: G
[3]; Pluronic P 105, 5 mg · ml^−1
  Gelation properties: p
[3]; Pluronic P 105, 100 mg · ml^−1
  Gelation properties: p

## Cc1sc(C(=O)N[C@H](C)C2CCCCC2)cc1C1=C(c2cc(C(=O)N[C@H](C)C3CCCCC3)sc2C)CCC1 [Compound E, 1,2-Bis(2′-methyl-5′-{(((R)-1-cyclohexylethyl)amino)carbonyl}thien-3′-yl)cyclopentene]
[1]
  solvents gelated: hexadecane, cyclohexane, 1-phenyloctane, toluene, n-butylether, benzene, tetralin, 1,4-dioxane, and n-butyl acetate

## O=C(O)CCNC(=O)[C@H](Cc1ccccc1)NC(=O)[C@H]1C[C@@H](C(=O)N[C@@H](Cc2ccccc2)C(=O)NCCC(=O)O)C[C@@H](C(=O)N[C@@H](Cc2ccccc2)C(=O)NCCC(=O)O)C1 [gelator 12, cHexAm(L)Phe(β)AlaOH]
[1]
  solvents gelated: water

## CHex-Am-Phe-Am-Borate
[1]
  solvents gelated: water and lower alcohols

## O=C(N[C@@H](Cc1ccccc1)C(=O)O)[C@H]1C[C@@H](C(=O)N[C@H](Cc2ccccc2)C(=O)O)C[C@@H](C(=O)N[C@H](Cc2ccccc2)C(=O)O)C1 [10b, CHexAmPheOH (DDL)]
[1]
  solvents gelated: water

## O=C(O)C(Cc1ccccc1)NC(=O)[C@H]1C[C@@H](C(=O)NC(Cc2ccccc2)C(=O)O)C[C@@H](C(=O)NC(Cc2ccccc2)C(=O)O)C1 (mixture of isomers) [10a, CHexAmPheOH (mixture of isomers)]
[1]
  solvents gelated: water

## (1S,2S) CHex-bisurea dihexylamine [5a]
[1]; 1 N NaHCO3
  Gelation properties: i
[1]; 1 N NaOH
  Gelation properties: i
[1]; 25% Ammonia
  Gelation properties: g
[1]; buffer PH 5.7
  Gelation properties: sol
[1]; buffer PH 7.2
  Gelation properties: p
[1]; buffer PH 7.9
  Gelation properties: g
[1]; water
  Gelation properties: g

## CHex-Am-Met-Am-EtOH
[1]
  solvents gelated: water

## CC(C)[C@H](NC(=O)[C@H]1C[C@@H](C(=O)N[C@H](C(=O)O)C(C)C)C[C@@H](C(=O)N[C@H](C(=O)O)C(C)C)C1)C(=O)O [CHex-Am-Val-OH]
[1]
  solvents gelated: water

## CC(NC(=O)[C@H](Cc1ccccc1)NC(=O)[C@H]1C[C@@H](C(=O)N[C@@H](Cc2ccccc2)C(=O)N[C@H](C)C(=O)O)C[C@@H](C(=O)N[C@@H](Cc2ccccc2)C(=O)N[C@H](C)C(=O)O)C1)C(=O)O (stereo partly shown) [gelator 11, CHexAm(L)Phe(D)AlaOH]
[1]
  solvents gelated: water and lower alcohols

## O=C(NC(Cc1ccccc1)C(=O)O)C1CC(C(=O)NC(Cc2ccccc2)C(=O)O)CC(C(=O)NC(Cc2ccccc2)C(=O)O)C1 (single isomer, unassigned) [LLL diasteroisomer, CHexAmPheOH]
[1]
  solvents gelated: only gelates lower alcohols

B1: E06/G22S (protein, UniProt P0A742 1-136, looked up, variant E6H G22S)
Large-conductance …: MSIIKHFREFAMRGNVVDLAVSVIIGAAFGKIVSSLVADIIMPPLGLLIGGIDFKQFAVTLRDAQGDIPAVVMHYGVFIQNVFDFLIVAFAIFMAIKLINKLNRKKEEPAAAPAPTKEEVLLTEIRDLLKEQNNRS
[4]
  Growth on agar plates +IPTG: +++
  Growth on agar plates −IPTG: ++++

B2: A11H (protein, UniProt P0A742 1-136, looked up, variant A11H)
Large-conductance …: B1 Large-conductance … with H6E, A11H, S22G
[4]
  Growth on agar plates +IPTG: ++++
  Growth on agar plates −IPTG: ++++

B3: A11H/G22S (protein, UniProt P0A742 1-136, looked up, variant A11H G22S)
Large-conductance …: B1 Large-conductance … with H6E, A11H
[4]
  Growth on agar plates +IPTG: ++
  Growth on agar plates −IPTG: ++++

B4: F10H (protein, UniProt P0A742 1-136, looked up, variant F10H)
Large-conductance …: B1 Large-conductance … with H6E, F10H, S22G
[4]
  Growth on agar plates +IPTG: ++++
  Growth on agar plates −IPTG: ++++

B5: M12H (protein, UniProt P0A742 1-136, looked up, variant M12H)
Large-conductance …: B1 Large-conductance … with H6E, M12H, S22G
[4]
  Growth on agar plates +IPTG: ++++
  Growth on agar plates −IPTG: ++++

B6: F10H/G22S (protein, UniProt P0A742 1-136, looked up, variant F10H G22S)
Large-conductance …: B1 Large-conductance … with H6E, F10H
[4]
  Growth on agar plates +IPTG: +
  Growth on agar plates −IPTG: ++++

B7: M12H/G22S (protein, UniProt P0A742 1-136, looked up, variant M12H G22S)
Large-conductance …: B1 Large-conductance … with H6E, M12H
[4]
  Growth on agar plates +IPTG: ++
  Growth on agar plates −IPTG: ++++

B8: R13H (protein, UniProt P0A742 1-136, looked up, variant R13H)
Large-conductance …: B1 Large-conductance … with H6E, R13H, S22G
[4]
  Growth on agar plates +IPTG: +++
  Growth on agar plates −IPTG: ++++

B9: R13H/G22S (protein, UniProt P0A742 1-136, looked up, variant R13H G22S)
Large-conductance …: B1 Large-conductance … with H6E, R13H
[4]
  Growth on agar plates +IPTG: −
  Growth on agar plates −IPTG: ++++
